Laboratory results: patent US20160278381A1, “Agricultural And Horticultural Fungicidal Composition And Method Of Use Of the Same” (NIHON NOHYAKU CO., LTD., priority 2015, published 2016)

Test system: Pythium aphanidermatum
Experiment: Test Example 1: spray on lawn grass sods, inoculation with Pythium aphanidermatum, control value from lesion diameter
Type: in vivo
Details: for Control Value (%): alone, lesion diameter seven days after inoculation; for efficacy against Pythium aphanidermatum: treated each alone
Source text: With a hand spray, chemical agents (no spreader added) prepared from commercial formulations at the predetermined concentrations were sprayed with the volume of 0.25 l/m^2. Seven days after the final spraying, with a hole cutter (10 cm in diameter), two sods were cut out, transferred into a greenhouse and inoculated with Pythium aphanidermatum.
For the test plot for the present invention, chemical solutions of tiadinil and chlorothalonil were each prepared, and each of the chemical solutions were blended for use as compositions and combinations.
Seven days after the inoculation, lesion diameters in each treated plots and the untreated plot were measured for calculating the control values for each treated plots using an equation below.
In general, in a case, where two active ingredients given are mixed and treated, if the actual efficacy measured is larger than the Colby's expectation value (E) calculated using the Colby's equation below, wherein value (E) is interpreted to denote an expected control value (%) which is predicted by the combination of the two active ingredients, the function achieved by the combination of the two active ingredients is determined to be synergistic.
(wherein X represents the preventive value (%) of one of the active ingredients and Y represents the preventive value (%) of the other active ingredient.)

SMILES	Control Value (%) (dose 1.1 fl oz/1,000 ft^2)	efficacy against Pythium aphanidermatum	Control Value (%) (dose 0.15625 fl oz/1,000 ft^2)	Control Value (%) (dose 0.3125 fl oz/1,000 ft^2)	Control Value (%) (dose 0.625 fl oz/1,000 ft^2)	Control Value (%) (dose 1.25 fl oz/1,000 ft^2)
N#Cc1c(Cl)c(Cl)c(Cl)c(C#N)c1Cl [Chlorothalonil, chlorothalonil]	22	did not show sufficient efficacy				
Cc1ccc(NC(=O)c2snnc2C)cc1Cl [Tiadinil, tiadinil]		did not show sufficient efficacy	11	11	22	22
